According to PubChem BioAssay (NCI):
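Where inhibition never reached the appropriate level, the endpoint shown equals the highest concentration tested. Otherwise, values were interpolated linearly from a five-concentration, 48-hour dose response in 96-well plates. Here, GI50 denotes the concentration required for 50% inhibition of growth. TGI: total growth inhibition.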

What was measured:
Experiment in all cases: DTP human tumour cell line panel, 48 h
ACHN renal = tested on: ACHN renal
HS 578T breast = tested on: HS 578T breast
A498 renal = tested on: A498 renal
KM12 colon = tested on: KM12 colon
MALME-3M melanoma = tested on: MALME-3M melanoma
K-562 leukemia = tested on: K-562 leukemia
HCT-116 colon = tested on: HCT-116 colon
OVCAR-5 ovarian = tested on: OVCAR-5 ovarian
SK-MEL-5 melanoma = tested on: SK-MEL-5 melanoma
HOP-92 NSCLC = tested on: HOP-92 NSCLC
LOX IMVI melanoma = tested on: LOX IMVI melanoma
EKVX NSCLC = tested on: EKVX NSCLC
786-0 renal = tested on: 786-0 renal
SNB-75 CNS = tested on: SNB-75 CNS
SNB-19 CNS = tested on: SNB-19 CNS
OVCAR-8 ovarian = tested on: OVCAR-8 ovarian
PC-3 prostate = tested on: PC-3 prostate
SF-268 CNS = tested on: SF-268 CNS
HT29 colon = tested on: HT29 colon
SN12C renal = tested on: SN12C renal
UACC-257 melanoma = tested on: UACC-257 melanoma
BT-549 breast = tested on: BT-549 breast
DU-145 prostate = tested on: DU-145 prostate
NCI-H226 lung = tested on: NCI-H226 lung
U251 CNS = tested on: U251 CNS
UACC-62 melanoma = tested on: UACC-62 melanoma

In the case of `O=C1c2c(c3c4cc(Br)ccc4[nH]c3c3ccc4ccccc4c23)C(=O)N1CCN1CCNCC1`, the GI50 (ACHN renal) is reported as 11.1 µM, the TGI (ACHN renal) is reported as 27.4 µM and the GI50 (HS 578T breast) is reported as 17.9 µM. The TGI (HS 578T breast) was 52.4 µM, the GI50 (A498 renal) was 16.1 µM and the TGI (A498 renal) was 29.8 µM. It also gave a GI50 (KM12 colon) of 3.21 µM, a TGI (KM12 colon) of 11.6 µM and a GI50 (MALME-3M melanoma) of 14.3 µM. For the same molecule, the TGI (MALME-3M melanoma) was 36.3 µM, the GI50 (K-562 leukemia) was 1.28 µM and the TGI (K-562 leukemia) was 3.05 µM. For the same molecule, the GI50 (HCT-116 colon) was 1.73 µM, the TGI (HCT-116 colon) was 3.13 µM and the GI50 (OVCAR-5 ovarian) was 2.88 µM. For the same molecule, the TGI (OVCAR-5 ovarian) was 9.14 µM, the GI50 (SK-MEL-5 melanoma) was 18.1 µM and the TGI (SK-MEL-5 melanoma) was 38 µM. It also gave a GI50 (HOP-92 NSCLC) of 14.4 µM, a TGI (HOP-92 NSCLC) of 28.7 µM and a GI50 (LOX IMVI melanoma) of 2.06 µM. For the same molecule, the TGI (LOX IMVI melanoma) was 5.3 µM, the GI50 (EKVX NSCLC) was 1.98 µM and the TGI (EKVX NSCLC) was 4.96 µM. It also gave a GI50 (786-0 renal) of 2.94 µM, a TGI (786-0 renal) of 9.44 µM and a GI50 (SNB-75 CNS) of 18.3 µM. It also gave a TGI (SNB-75 CNS) of 35.5 µM, a GI50 (SNB-19 CNS) of 1.8 µM and a TGI (SNB-19 CNS) of 3.79 µM. The GI50 (OVCAR-8 ovarian) was 1.96 µM, the TGI (OVCAR-8 ovarian) was 5 µM and the GI50 (PC-3 prostate) was 2.91 µM. It also gave a TGI (PC-3 prostate) of 11 µM, a GI50 (SF-268 CNS) of 12.3 µM and a TGI (SF-268 CNS) of 36.3 µM. It also gave a GI50 (HT29 colon) of 1.64 µM, a TGI (HT29 colon) of 3.11 µM and a GI50 (SN12C renal) of 13.5 µM. For the same molecule, the TGI (SN12C renal) was 36.6 µM, the GI50 (UACC-257 melanoma) was 12.9 µM and the TGI (UACC-257 melanoma) was 28.4 µM. It also gave a GI50 (BT-549 breast) of 13.1 µM, a TGI (BT-549 breast) of 30.7 µM and a GI50 (DU-145 prostate) of 2.09 µM. The TGI (DU-145 prostate) was 4.53 µM, the GI50 (NCI-H226 lung) was 10.8 µM and the TGI (NCI-H226 lung) was 39.5 µM. The GI50 (U251 CNS) was 1.49 µM, the TGI (U251 CNS) was 2.86 µM and the GI50 (UACC-62 melanoma) was 12.8 µM. The TGI (UACC-62 melanoma) was 31.3 µM.
